Source: EP4480471A1, “SPECIFIC COMPOUNDS FOR TREATING SIGNS OF SKIN AGING AND/OR HAIR AGING” (DSM IP Assets B.V., priority 2023, dated 2024)

Tested on: human dermal fibroblasts
Assay: Senolytic activity study: SA-beta-galactosidase flow cytometry on a mixed 70% normal / 30% senescent cell population
Format: cell-based
Conditions: 72 hours; for Senescent cells left from 30%: normalized to untreated control, n = 4
Procedure: Normal and senescent cell populations were obtained from normal human dermal fibroblasts. For the normal cell population, the cells were seeded in cell culture medium (Dulbecco's Modified Eagle Medium supplemented with 10% serum and 1% antibiotics) and allowed to adhere and proliferate in a humidified cell incubator maintaining 37°C and 5% CO2. These were then passaged or collected when 90% confluent. For the senescent cell population, the normal fibroblast cells were at this stage shortly exposed to 200 µM H2O2 followed by normal cell culture medium. Several days later, the cells were treated again with H2O2 to obtain a fully senescent population.
Both normal and senescent populations were mixed into a 70% normal and 30% senescent cell population and represented the treatment population. Afterward, the 70% normal and 30% senescent cell population were seeded in cell culture medium and allowed to adhere in the cell incubator. After adherence, the medium was aspirated, and the treatment medium (Dulbecco's Modified Eagle Medium supplemented with 1% serum) containing the respective compounds at various concentrations (see Table 1) was added to the cells. For assay validation purposes, one condition with treatment medium only (without compound as negative control) and one condition with navitoclax (a known senolytic as positive control); both not included in the presented data. The cells were incubated in the cell incubator for at least 72 hours. Afterward, senescence-associated beta-galactosidase was visualized - a well-known senescence marker- in the cells to quantify the senescence levels using flow cytometry.
Data are normalized to the untreated control (30% senescent cells and 70% normal cells) (n = 4).

[1] = 25 µM, 70% normal and 30% senescent human dermal fibroblasts
[2] = 1 µM, 70% normal and 30% senescent human dermal fibroblasts
[3] = 5 µM, 70% normal and 30% senescent human dermal fibroblasts
[4] = concentration not given, human dermal fibroblasts

SMILES	Senolytic effect [1]	Senescent cells left from 30% [1]	Senolytic effect [2]	Senolytic effect [3]	Senescent cells left from 30% [2]	Senescent cells left from 30% [3]	Senolytic effect [4]
COc1cc([C@@H]2CC(=O)c3c(O)cc(O)cc3O2)ccc1O [(I"1)]	yes	23%	–	–	–	–	–
O=C1c2c(O)cc(O)cc2O[C@H](c2cc(O)c(O)c(O)c2)[C@H]1O [(I"2)]	yes	–	yes	yes	–	–	–
O=C1c2c(O)cc(O)cc2OC(c2cc(O)c(O)c(O)c2)C1O (centres unmarked) [(I"3)]	yes	–	yes	yes	–	–	–
COc1ccc(C2CC(=O)c3c(O)cc(O)cc3O2)cc1O (centres unmarked) [(I"4)]	yes	–	yes	yes	–	–	–
O=C1CC(c2ccccc2)Oc2ccc(O)cc21 (centres unmarked) [(I"5)]	yes	–	yes	yes	–	–	–
COc1cc(O)c2c(c1)OC(c1ccccc1)CC2=O (centres unmarked) [(I"6)]	yes	–	yes	yes	–	–	–
COc1cc(O)c2c(c1)OC(c1ccc(O)cc1)CC2=O (centres unmarked) [(I"7)]	yes	–	yes	yes	–	–	–
O=C1CC(c2ccccc2)Oc2cc(O)ccc21 (centres unmarked) [(I"8)]	–	–	yes	yes	24%	24%	yes
COc1cc(C2CC(=O)c3c(O)cc(O)cc3O2)ccc1O (centres unmarked) [(I"10)]	yes	22%	–	–	–	–	yes
O=C1CC(c2ccc(O)c(O)c2)Oc2cc(O)cc(O)c21 (centres unmarked) [(I"11)]	–	–	yes	yes	–	–	yes
O=c1cc(-c2ccc(O)c(O)c2)oc2c(O)c(O)ccc12 [(I'1)]	yes	–	yes	yes	–	–	–
O=c1c(-c2ccc(O)c(O)c2)coc2cc(O)ccc12 [(I'2)]	yes	–	yes	yes	–	–	–
COc1cc(-c2oc3cc(O)ccc3c(=O)c2O)cc(OC)c1OC [(I'3)]	yes	–	yes	yes	–	–	–
COc1cc(C)c2c(=O)c(-c3ccccc3)coc2c1 [(I'4)]	yes	–	yes	yes	–	–	–
COc1ccc(-c2cc(=O)c3c(OC)cc(OC)cc3o2)cc1 [(I'5)]	yes	–	yes	yes	–	–	–
COc1cc2oc(-c3ccccc3)cc(=O)c2c(O)c1O [(I'6)]	yes	–	yes	yes	–	–	–
COc1ccc(-c2coc3cc(O)cc(O)c3c2=O)cc1 [(I'7)]	yes	–	yes	yes	–	–	–
COc1cc(-c2cc(=O)c3c(O)cc(O)cc3o2)ccc1O [(I'8)]	yes	–	yes	yes	–	–	–
O=c1cc(-c2ccc(O)cc2)oc2c(-c3c(O)cc(O)c4c(=O)cc(-c5ccc(O)cc5)oc34)c(O)cc(O)c12 [(I'9)]	yes	–	yes	yes	–	–	–
O=c1c(O)c(-c2ccc(O)cc2)oc2c(O)c(O)cc(O)c12 [(I'10)]	yes	–	–	yes	–	–	–

SMILES	Senolytic effect [1]	Senescent cells left from 30% [1]	Senolytic effect [2]	Senolytic effect [3]	Senescent cells left from 30% [2]	Senescent cells left from 30% [3]	Senolytic effect [4]
COc1ccc(-c2cc(=O)c3c(O)cc(O[C@@H]4O[C@H](CO)[C@@H](O)[C@H](O)[C@H]4O)cc3o2)cc1O [(I'11)]	yes	–	–	yes	–	–	–
CC1OC(Oc2c(-c3cc(O)c(O)c(O)c3)oc3cc(O)cc(O)c3c2=O)C(O)C(O)C1O (centres unmarked) [(I'14)]	yes	–	yes	yes	–	–	–
COc1c(O[C@@H]2O[C@H](CO)[C@@H](O)[C@H](O)[C@H]2O)cc2oc(-c3ccc(O)c(O)c3)c(O)c(=O)c2c1O [(I'15)]	yes	–	yes	yes	–	–	–
CC(C)Oc1ccc2c(=O)c(-c3ccccc3)coc2c1 [(I'16)]	yes	–	yes	yes	–	–	–
O=c1c(O)c(-c2ccc(O)cc2)oc2cc(O)cc(O)c12 [(I'17)]	yes	–	yes	yes	–	–	–
COc1c(O)cc2oc(-c3ccc(O)c(O)c3)cc(=O)c2c1O [(I'18)]	yes	–	yes	yes	–	–	–
COc1cc(O)c2c(=O)c(O)c(-c3ccc(O)c(OC)c3)oc2c1 [(I'19)]	yes	–	yes	yes	–	–	–
COc1cc(O)c2c(=O)c(O)c(-c3ccc(O)c(O)c3)oc2c1 [(I'20)]	yes	–	yes	yes	–	–	–
O=c1c(O)c(-c2cc(O)c(O)c(O)c2)oc2cc(O)ccc12 [(I'21)]	yes	–	yes	yes	–	–	–
O=c1cc(-c2cc(O)c(O)c(O)c2)oc2cc(O)cc(O)c12 [(I'22)]	yes	–	yes	yes	–	–	–
COc1c(-c2ccccc2)oc2ccccc2c1=O [(I'23)]	yes	21%	–	–	–	–	yes
COc1cc2oc(-c3ccccc3)cc(=O)c2c(OC)c1OC [(I'24)]	yes	–	–	yes	–	–	yes
O=c1c(O)c(-c2ccccc2O)oc2cc(O)cc(O)c12 [(I'25)]	yes	–	yes	yes	–	–	–
O=c1c(-c2ccc(O)cc2)coc2cc(O[C@@H]3O[C@H](CO)[C@@H](O)[C@H](O)[C@H]3O)ccc12 [(I'26)]	–	–	yes	–	25%	–	yes
COc1ccc(-c2cc(=O)c3c(O)cc(O)cc3o2)cc1O [(I'27)]	yes	–	yes	yes	–	–	–
COc1cc2c(=O)c(-c3ccc(O)cc3)coc2cc1O [(I'28)]	yes	23%	–	–	–	–	yes
COc1cc(-c2cc(=O)c3c(O)c(OC)c(OC)c(OC)c3o2)cc(OC)c1OC [(I'29)]	yes	–	yes	yes	–	–	–
COc1cc(-c2coc3cc4c(c(OC)c3c2=O)OCO4)cc(OC)c1OC [(I'30)]	yes	26%	–	–	–	–	yes
COc1ccc(-c2cc(=O)c3ccc(O)cc3o2)cc1 [(I'32)]	yes	–	yes	yes	–	–	–
COc1ccc(-c2cc(=O)c3c(OC)c(OC)c(OC)cc3o2)cc1 [(I'33)]	yes	–	yes	yes	–	–	–
